Columns and labels:
Assay type in all cases: biochemical
[1] = Deodorizing activity test (1) with tyrosinase as polyphenol oxidase; conditions: Tyrosinase 1 mg, sample 2 mg, sodium methyl mercaptan 15% aqueous solution 2 μl, room temperature 10 minutes, head space gas detection tube
Method: (§1) Tyrosinase (mfd. by SIGMA, 1 mg) or laccase (mfd. by Amano Enzyme, 1 mg) was added as a polyphenol oxidase to each (2 mg) of 5-CQA (mfd. by Tokyo Chemical Industry), ferulic acid (mfd. by Tokyo Chemical Industry) and ferulylquinic acid and dissolved therein, and then sodium methyl mercaptan (mfd. by Tokyo Chemical Industry, 15% aqueous solution) (2 μl) was added thereto as a malodor substance and sealed therein, followed by stirring at room temperature for 10 minutes. The amount of methyl mercaptan in the head space part was measured using a gas detection tube (GASTEC Corporation, #71H) and the deodorizing ratio was calculated in accordance with the following mathematical expression.
(§2) In this connection, a system to which each of CQA or FQA (2 mg) and polyphenol oxidase were not added was used as a control plot.
(§3) Deodorizing ratio (%)=100−(methyl mercaptan concentration of sample plot/methyl mercaptan concentration of control plot)×100

[2] = Deodorizing activity test (1) with laccase as polyphenol oxidase; conditions: Laccase 1 mg, sample 2 mg, sodium methyl mercaptan 15% aqueous solution 2 μl, room temperature 10 minutes, head space gas detection tube
Method: as §1, §2, §3

[3] = Anti-oxidation activity test (DPPH radical elimination ability); conditions: Trolox equivalent amount; sample 100 mg/l in 50% v/v ethanol, 1 mM DPPH, 30 minutes, absorbance 520 nm
Method: As the anti-oxidation activity, to what extent it can eliminate DPPH (1,1-diphenyl-2-picrylhydrazyl) (mfd. by Tokyo Chemical Industry) radicals was evaluated by an absorptiometric method (520 nm). Its illustrative method is as the following anti-oxidation activity measuring method.
Used as the standard of radical elimination ability was Trolox (218940050: mfd. by ACROS ORGANICS) prepared from α-tocopherol which is a typical antioxidant substance by releasing its side chain to provide water-soluble nature. By preparing a calibration curve of Trolox concentration and absorbance (y=−0.2099x+0.4179), anti-oxidation activity of each sample was evaluated by converting it into Trolox equivalent amount. Regarding samples in the table, 5-CQA is manufactured by Tokyo Chemical Industry and ferulic acid is manufactured by Tokyo Chemical Industry.
1 mM ethanol solution of DPPH is prepared (39.4 mg/100 ml). After dissolution, DPPH is immediately used in the test (preparation when used).
By dissolving each sample in 50% v/v ethanol, its 100 mg/l solution is prepared.
A 4 ml portion of the above-mentioned sample solution and 1 ml of the DPPH solution are added to a test tube, followed by stirring and allowing to stand still for 30 minutes, and then absorbance at a wavelength of 520 nm is measured.
By applying absorbance of the sample to the calibration curve, Trolox equivalent amount (mol) is calculated.

Compound	Deodorizing ratio (%) [1] [%]	Deodorizing ratio (%) [2] [%]	Anti-oxidation activity (T. μmol/μmol) [3] [T. μmol/μmol]
O=C(/C=C/c1ccc(O)c(O)c1)O[C@@H]1C[C@@](O)(C(=O)O)C[C@@H](O)[C@@H]1O [Example 5-CQA, 5-caffeoylquinic acid]	75	100	1.03
COc1cc(/C=C/C(=O)O)ccc1O [Ferulic acid, ferulic acid]	−10	−18	0.37
ferulylquinic acid	−20	−18	0.35

Reference: patent US20160355456A1, “PLANT EXTRACTS AND USE THEREOF” (TAKASAGO INTERNATIONAL CORPORATION, priority 2007, published 2016)
